System: rats with ovariectomy-induced osteoporosis
Assay: Ovariectomy-induced osteoporosis model
Format: in vivo, rats (strain Sprague-Dawley)
Settings: 3 months
Method: In order to determine the efficacy against osteoporosis in rats (strain Sprague-Dawley), two animal test models were constructed to illustrate the outcomes against normal osteoporosis or estrogen-deficiency-induced osteoporosis, respectively.
In the animal test models, retinoic acid-induced osteoporosis model was used as normal osteoporosis model and ovariectomy-induced model was used as the model for osteoporosis induced by estrogen deficiency.
The following experiment was conducted to test the effects of the pharmaceutical composition of the present invention on rats with ovariectomy-induced osteoporosis in terms of bone mineral contents, bone mineral density, biomechanical index and bone histomorphometry as well as illustrate the claimed efficacy of the pharmaceutical composition.
The ovariectomized animal model was constructed as follows. Anesthesia of the rats was conducted by intra-abdominal injection of 20% urethane according to the dosage of 1 g/kg. The rats were then placed face down, incised in both sides of the spinal cord under aseptic condition, and their ovaries were removed to attain an osteoporosis animal model. For Normal Group, a piece of fat was removed on both sides of back spinal cord. After five days, 72 animals were chosen from the living rats and randomly divided into 9 groups of 8 animals. Administrations were given according to the following conditions:
Normal Group (pseudo-operation): CMC-Na solution 10 ml/kg/d
Affected Group: CMC-Na solution 10 ml/kg/d
Positive Group (Nylestriol): batch no. 020701, provided by Shianghai Hualian Pharmaceuticals, 1 mg/kg, once a week
Subgroup I—Extract of Semen Cuscutae and Fructus Cindii/Composite Groups
(Medium Dosage): 200 mg/kg
Subgroup II—Sole Extract of Semen Cuscutae (Unitary Group)
Subgroup III—Low Dosage Plus Calcium-containing Substance 100 mg/kg, 200 mg/kg in Total
Subgroup IV—Unitary Group Plus Calcium-containing Substance in a Ratio of 70/30, 200 mg/kg in Total
The animals were continuously administered for 3 months. The effects of the pharmaceutical composition of the present invention on morphological alteration of the femur of rats were analyzed using a Dual Energy X-Ray Absorptiometry (DEXA) two days before end of the experiment under the anesthesia of ether. The femur and tibia bone were peeled and measured. Those pieces were soaked in 4% glutaraldehyde (0.1M, pH 7.3) for more than 24 hours. Later on, the vector side of the femur was hacksawed with dental diamond saw blades (grindstone). One piece from each animal was removed and cleaned in 10% sodium hypochlorite solvent for 6 hours, followed by ultra sound wash for 15 minutes.
It was then dehydrated by ethanol-gradient, soaked in ethyl ether, air dried, and then treated with ion sputtering coating (IB-3). The BMD was assessed by dual-energy X-ray absorptiometry (DEXA), and the SX-40 X-ray bone densitometer on 20,000 volt. The graphs were taken by CMIAS-98A image analyzer.
The bones were dried at […] in the oven and then weighed to get the dry weight. The dry bones were carbonated and then incinerated in 800° C. muffle furnace for 6 hours. The ashes were weighed and then dissolved in 6N HCl, in order to measure the Ca and P levels.

C#C[C@]1(O)[C@H](O)C[C@H]2[C@@H]3CCc4cc(OC5CCCC5)ccc4[C@H]3CC[C@@]21C [Nylestriol]
Ash Mass Index (1 mg/kg once a week): 0.649 ± 0.024 g/g
EI (1 mg/kg once a week): 28.55 ± 7.03 KN · mm^2
K (spring strength) (1 mg/kg once a week): 248.91 ± 53.04 N/mm
Pb (maximum strength) (1 mg/kg once a week): 97 ± 9.4 N
δb (maximum torsion index) (1 mg/kg once a week): 0.54 ± 0.17 mm
σb (tensile strength) (1 mg/kg once a week): 147.79 ± 13.95 MPa
BMD level, Femur (DEXA, femoral head, 1 mg/kg/w): 0.353 ± 0.030 g/cm^2
BMD level, Lumbar vertebra (DEXA, 1 mg/kg/w): 0.263 ± 0.015 g/cm^2
Ca level (bone ash, 1 mg/kg once a week): 0.254 ± 0.029 g/g
P level (bone ash, 1 mg/kg once a week): 0.130 ± 0.014 g/g
Average Trabecular Width (femur, 1 mg/kg/w): 146.89 ± 22.27 μm
Percentage of Trabecular Area (femur, 1 mg/kg/w): 0.9148 ± 0.0371
